Test results published in patent US8563547B2, “(6,7-dihydro-2-nitro-5H-imidazol[2,1-b][1,3]oxazin-6-yl) amide compounds, preparation methods and uses thereof” (Shanghai Sun-Sail Pharmaceutical Science & Technology Co., …, priority 2010, dated 2013).
≈ marks a conversion by molar mass, not a printed value. Read-outs that look alike come from different tables or passages of the source.

Assays:
[1] = tested on: Mycobacterium tuberculosis strain H37Rv; assay: Activity test for Mycobacterium tuberculosis (MIC, liquid medium, 96-well microplate); format: cell-based; details: for MIC: Mycobacterium tuberculosis, liquid medium, 37° C., read-out: Minimal inhibitory concentration for H37Rv; for activity for H37Rv, times as that of PA-824: relative to PA-824; for MIC for H37Rv, times as that of ethambutol: relative to ethambutol
Method: Tested Mycobacterium tuberculosis strain H37Rv was transferred to liquid medium, cultured for 2 weeks at 37° C., drew a little culture liquid of bacterium and placed into 4 mL liquid medium, added 10˜20 sterile glass bead of 2˜3 diameter, shook for 20˜30S, absolute-rest precipitated for 10˜20 min, aspirated bacterium suspension supernatant, turbidity was adjusted to 1 Maxwell unit with liquid medium, equivalent to 1×10^7CFU/mL for use. Each drug was dissolved to 1 mg/mL by adding an appropriate amount of DMSO, filtered through 0.22 μm filter. Again diluted to the required experimental concentration with liquid medium. The final concentration of test drugs were set as follows: 0.001 μg/mL, 0.002 μg/mL, 0.004 μg/mL, 0.008 μg/mL, 0.015 μg/mL, 0.03 μg/mL, 0.06 μg/mL, 0.12 μg/mL, 0.25 μg/mL, 0.5 μg/mL, 1 μg/mL, 2 μg/mL, 4 μg/mL, 8 μg/mL and 16 μg/mL, there totally are 15 concentration gradients. 100 μL of each above-mentioned drug solution was added to 96-well microplate, further added 100 μL […] bacteria liquid so that drug concentration could reach the set final concentration, cultured at 37° C. The same drug dilution was done in triplate in parallel, control group didn't added drug, inoculation amount was set to 100%, 10% and 1% respectively. Minimal inhibitory concentration (MIC) for Mycobacterium tuberculosis by each drug was observed, and compared with MIC results of first-line antituberculosis drug ethambutol and PA-824 in clinical research phase at the same time.

[2] = physchem; format: physicochemical; details: for solubility at 3 days: pH 1.2, simulated gastric fluid, thermodynamic from solid
Method: 3-5 mg tested compound was added to 0.5 mL pH=1.2 HCL aqueous solution, shook for 3 days in a shaker, samples were centrifuged at 10000 r/min for 5 min, aspirated […] supernatant to 50 mL volumetric flask, added water and metered volume to the mark to make sample solution; precisely weighted 2.6 mg sample to 50 mL volumetric flask, added an appropriate amount of methanol to dissolve. Added water and metered volume to the mark, shook up to give control sample solution. Loaded 20 μL sample solution and control sample solution respectively, tested for liquid phase. Calculated as follows: Solubility (mg/mL)=C(control)*25*A(sample)/A(control)
C(control): the concentration of control sample
A(sample): peak area of liquid phase of sample solution
A(control): peak area of liquid phase of control sample solution

[3] = Drug metabolism test: pharmacokinetics in mice; format: in vivo, ICR mice; details: for MRT last: read-out: MRT0-t
Method: (§1) 16 healthy male ICR mice with 18-22 g of body weight were used. Drugs were employed by intravenous or gavage administration, administration doses were 5 mg and 25 mg/kg, administration volume was 10 mL/kg. Fasted for 12 h before test with free access to water. Uniformly fed at 2 h after administration. 0.3 mL blood was drawn through mice post-glomus venous plexus according to set time points, placed in heparinized test tube, centrifuged at 3000 r/min for 10 min, separated plasma, frozen in refrigerator at −20° C. When detected, samples were treated according to plasma sample treatment method, drug concentration in plasma was determined by LC-MS method, and calculated its pharmacokinetic parameters.

[4] = Tissue distribution test in mice; format: in vivo; details: orally administrated 25 mg/kg
Method: as §1
After compound 1 was orally administrated to mice (25 mg/kg), the concentrations of the compound in […], lung, brain and plasma at different time was shown as FIG. 1.

[5] = male, ICR, mouse, IV (5 mg/kg), plasma
[6] = male, ICR, mouse, PO (25 mg/kg), plasma

| Compound | MIC [1] [µg/mL] | activity for H37Rv, times as that of PA-824 [1] [times] | MIC for H37Rv, times as that of ethambutol [1] [times] | water-solubility, times as that of PA-824 [2] [times] | solubility at 3 days [2] [µg/mL] | also measured |
| --- | --- | --- | --- | --- | --- | --- |
| CC(C)Oc1ccc(OC2CCN(CC(=O)N[C@@H]3COc4nc([N+](=O)[O-])cn4C3)CC2)cc1 [Compound 14] | 0.06 (≈ 0.131 µM) | 2 | 8 | – | – | – |
| CC[C@@H](CO)NCCN[C@@H](CC)CO [ethambutol, reference compound] | 0.5 (≈ 2.45 µM) | – | – | – | – | – |
| O=C(CCCN1CC(Oc2ccc(OC(F)(F)F)cc2)C1)N[C@@H]1COc2nc([N+](=O)[O-])cn2C1 [Compound 26, 4-(3-(4-(trifluoromethoxy)phenoxy)azetidin-1-yl)-N-((S)-6,7-dihydro-2-nitro-5H-imidazo [2,1-b][1,3]oxazin-6-yl)butyramide] | 0.03 (≈ 0.0618 µM) | 4 | 16 | 90 | 846 (≈ 1740 µM) | – |
| O=C(CN1CCN(Cc2ccc(OC(F)(F)F)cc2)CC1)N[C@@H]1COc2nc([N+](=O)[O-])cn2C1 [Compound 17, (S)-N-(6,7-dihydro-2-nitro-5H-imidazo [2,1-b][1,3]oxazin-6-yl)-2-(4-(4-(trifluoromethoxy)benzyl)piperazin-1-yl)acetamide] | 0.12 (≈ 0.248 µM) | – | – | 155 | 1460 (≈ 3010 µM) | – |
| O=C(CCN1CCC(Oc2ccc(OC(F)(F)F)cc2)CC1)N[C@@H]1COc2nc([N+](=O)[O-])cn2C1 [Compound 22, (S)-N-(6,7-dihydro-2-nitro-5H-imidazo [2,1-b][1,3]oxazin-6-yl)-3-(4-(4-(trifluoromethoxy)phenoxy)piperid-1-yl)propanamide] | 0.06 (≈ 0.12 µM) | 2 | 8 | 72 | 677 (≈ 1360 µM) | – |
| O=C(CN1CCC(Oc2ccc(OC(F)(F)F)c(F)c2)CC1)N[C@@H]1COc2nc([N+](=O)[O-])cn2C1 [Compound 3, 2-(4-(3-fluoro-4-(trifluoromethoxy)phenoxy)piperid-1-yl)-N-((S)-6,7-dihydro-2-nitro-5H-imidazo[2,1-b][1,3]oxazin-6-yl)acetamide] | 0.06 (≈ 0.119 µM) | 2 | 8 | – | – | – |
| O=C(CN1CCC(Oc2ccc(OC(F)(F)F)cc2)CC1)N[C@@H]1COc2nc([N+](=O)[O-])cn2C1 [Compound 1, (S)-N-(6,7-dihydro-2-nitro-5H-imidazo [2,1-b][1,3]oxazin-6-yl)-2-(4-(4-(trifluoromethoxy)phenoxy)piperid-1-yl)acetamide] | 0.03 (≈ 0.0618 µM) | 4 | 16 | 79 | 746 (≈ 1540 µM) | CLz ([3]; IV (5 mg/kg)): 10.7 mL/min/kg; AUC(0-inf) [3, 5]: 7860 ng·h/mL; AUC(0-t) [3, 5]: 7850 ng·h/mL; Cmax [3, 5]: 3880 ng/mL; half-life [3, 5]: 2.8 h; MRT last [3, 5]: 3.6 h; AUC(0-inf) [3, 6]: 40200 ng·h/mL; AUC(0-t) [3, 6]: 40100 ng·h/mL; Cmax [3, 6]: 4790 ng/mL; Tmax [3, 6]: 1 h; half-life [3, 6]: 2.7 h; MRT last [3, 6]: 5 h; Vd ([3]; male, ICR, mouse, plasma, IV (5 mg/kg), read-out: Vz): 2.3 L/kg; bioavailability ([3]; male, ICR, mouse, plasma, PO 25 mg/kg vs IV 5 mg/kg, read-out: F (oral bioavailability)): 102%; site of major distribution [4]: lung and spleen; tissue distribution property ([4]; FIG. 1): good tissue distribution property |
| O=[N+]([O-])c1cn2c(n1)OC[C@@H](OCc1ccc(OC(F)(F)F)cc1)C2 [PA-824, reference compound] | 0.12 (≈ 0.334 µM) | – | – | – | 9.4 (≈ 26.2 µM) | – |
| O=C(CN1CCC(Oc2ccc(OCCOC3CC3)cc2)CC1)N[C@@H]1COc2nc([N+](=O)[O-])cn2C1 [Compound 16, (S)-2-(4-(4-(2-(cyclopropoxy)ethoxy)phenoxy)piperid-1-yl)-N-(2-nitro-6,7-dihydro-5H-imidazo [2,1-b][1,3]oxazin-6-yl)acetamide] | 0.03 (≈ 0.0598 µM) | 4 | 16 | – | – | – |
